Patent publication US10730863B2, “Bridged bicyclic compounds as farnesoid X receptor modulators” (BRISTOL-MYERS SQUIBB COMPANY, priority 2017, dated 2020)

Biological target: FXR (Homo sapiens (Human), UniProt Q96RI1)
Experiment: FXR EC50 (FXR agonist activity reported with each example)
Assay type: cell-based

FXR, sequence (Q96RI1 262-486): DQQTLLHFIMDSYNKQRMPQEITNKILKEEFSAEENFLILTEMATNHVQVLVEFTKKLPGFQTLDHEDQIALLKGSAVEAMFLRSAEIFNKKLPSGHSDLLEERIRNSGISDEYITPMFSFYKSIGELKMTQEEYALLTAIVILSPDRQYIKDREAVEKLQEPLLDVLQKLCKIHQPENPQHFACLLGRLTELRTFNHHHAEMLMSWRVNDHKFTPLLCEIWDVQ

Row | EC50 [µM] | Compound
1 | 1.4 | 3-((4-((5-cyclopropyl-3-(2- trifluoromethoxy)phenyl)isoxazol-4- yl)methoxy)bicyclo[2.2.2]octan-1- yl)methoxy)nicotinic acid [Example 78]
2 | 0.17 | O=C(O)c1ccc(-c2noc(C34CCC(OCc5c(-c6ccccc6OC(F)(F)F)noc5C5CC5)(CC3)CC4)n2)cc1 [Example 2, 4-(5-(4-((5-cyclopropyl-3-(2-(trifluoromethoxy)phenyl)isoxazol-4-yl)methoxy)bicyclo[2.2.2]octan-1-yl)-1,2,4-oxadiazol-3-yl)benzoic acid]
3 | 0.89 | CS(=O)(=O)NC(=O)c1ccc(-c2noc(C34CCC(OCc5c(-c6c(Cl)cccc6Cl)noc5C5CC5)(CC3)CC4)n2)cc1 [Example 3, 4-(5-(4-((5-cyclopropyl-3-(2,6-dichlorophenyl)isoxazol-4-yl)methoxy)bicyclo[2.2.2]octan-1-yl)-1,2,4-oxadiazol-3-yl)-N-(methylsulfonyl)benzamide]
4 | 0.11 | COc1ccc(-c2noc(C34CCC(OCc5c(-c6ccccc6OC(F)(F)F)noc5C5CC5)(CC3)CC4)n2)cc1C(=O)O [Example 4, 5-(5-(4-((5-cyclopropyl-3-(2-(trifluoromethoxy)phenyl)isoxazol-4-yl)methoxy)bicyclo[2.2.2]octan-1-yl)-1,2,4-oxadiazol-3-yl)-2-methoxybenzoic acid]
5 | 4.2 | O=C(O)c1ccc2nc(C34CCC(OCc5c(-c6ccccc6C(F)(F)F)noc5C5CC5)(CC3)CC4)sc2c1 [Example 6, 2-(4-((5-cyclopropyl-3-(2-(trifluoromethyl)phenyl)isoxazol-4-yl)methoxy)bicyclo[2.2.2]octan-1-yl)benzo[d]thiazole-6-carboxylic acid]
6 | 0.15 | O=C(O)c1cccc(/C=C/C23CCC(OCc4c(-c5c(Cl)cccc5Cl)noc4C4CC4)(CC2)CC3)c1 [Example 7, (E)-3-(2-(4-((5-cyclopropyl-3-(2,6-dichlorophenyl)isoxazol-4-yl)methoxy)bicyclo[2.2.2]octan-1-yl)vinyl)benzoic acid]
7 | 0.38 | FC(F)(F)Oc1ccccc1-c1noc(C2CC2)c1COC12CCC(/C=C/c3cccc(-c4nnn[nH]4)c3)(CC1)CC2 [Example 8, (E)-4-(((4-(3-(1H-tetrazol-5-yl)styryl)bicyclo[2.2.2]octan-1-yl)oxy)methyl)-5-cyclopropyl-3-(2-(trifluoromethoxy)phenyl)isoxazole]
8 | 0.95 | O=C(O)c1ccc(-c2noc(C34CCC(OCc5c(-c6c(Cl)cccc6Cl)noc5C5CC5)(CC3)CC4)n2)nc1 [Example 9, 6-(5-(4-((5-cyclopropyl-3-(2,6-dichlorophenyl)isoxazol-4-yl)methoxy)bicyclo[2.2.2]octan-1-yl)-1,2,4-oxadiazol-3-yl)nicotinic acid]
9 | 2.7 | O=C(O)c1ccnc(-c2noc(C34CCC(OCc5c(-c6c(Cl)cccc6Cl)noc5C5CC5)(CC3)CC4)n2)c1 [Example 10, 2-(5-(4-((5-cyclopropyl-3-(2,6-dichlorophenyl)isoxazol-4-yl)methoxy)bicyclo[2.2.2]octan-1-yl)-1,2,4-oxadiazol-3-yl)isonicotinic acid]
10 | 2.9 | O=C(O)c1cncc(-c2noc(C34CCC(OCc5c(-c6ccccc6C(F)(F)F)noc5C5CC5)(CC3)CC4)n2)c1 [Example 11, 5-(5-(4-((5-cyclopropyl-3-(2-(trifluoromethyl)phenyl)isoxazol-4-yl)methoxy)bicyclo[2.2.2]octan-1-yl)-1,2,4-oxadiazol-3-yl)nicotinic acid]
11 | 1.2 | O=C(O)c1ccc(-c2noc(C34CCC(OCc5c(-c6ccccc6OC(F)(F)F)noc5C5CC5)(CC3)CC4)n2)cn1 [Example 12, 5-(5-(4-((5-cyclopropyl-3-(2-(trifluoromethoxy)phenyl)isoxazol-4-yl)methoxy)bicyclo[2.2.2]octan-1-yl)-1,2,4-oxadiazol-3-yl)picolinic acid]
12 | 0.27 | O=C(O)c1cccc(-c2noc(C34CCC(OCc5c(-c6c(Cl)cccc6Cl)noc5C5CC5)(CC3)CC4)n2)n1 [Example 13, 6-(5-(4-((5-cyclopropyl-3-(2,6-dichlorophenyl)isoxazol-4-yl)methoxy)bicyclo[2.2.2]octan-1-yl)-1,2,4-oxadiazol-3-yl)picolinic acid]
13 | 0.13 | O=C(O)c1cc(-c2noc(C34CCC(OCc5c(-c6c(Cl)cccc6Cl)noc5C5CC5)(CC3)CC4)n2)ccn1 [Example 14, 4-(5-(4-((5-cyclopropyl-3-(2,6-dichlorophenyl)isoxazol-4-yl)methoxy)bicyclo[2.2.2]octan-1-yl)-1,2,4-oxadiazol-3-yl)picolinic acid]
14 | 0.21 | O=C(O)c1cc(F)c2nc(C34CCC(OCc5c(-c6ccccc6OC(F)(F)F)noc5C5CC5)(CC3)CC4)sc2c1 [Example 15, 2-(4-((5-cyclopropyl-3-(2-(trifluoromethoxy)phenyl)isoxazol-4-yl)methoxy)bicyclo[2.2.2]octan-1-yl)-4-fluorobenzo[d]thiazole-6-carboxylic acid]
15 | 0.036 | O=C(O)c1cc(F)c2nc(C34CCC(OCc5c(-c6c(Cl)cccc6Cl)noc5C5CC5)(CC3)CC4)sc2c1 [Example 16, 2-(4-((5-cyclopropyl-3-(2,6-dichlorophenyl)isoxazol-4-yl)methoxy)bicyclo[2.2.2]octan-1-yl)-4-fluorobenzo[d]thiazole-6-carboxylic acid]
16 | 2.7 | O=C(O)c1ccc2[nH]c(C34CCC(OCc5c(-c6c(Cl)cccc6Cl)noc5C5CC5)(CC3)CC4)nc2c1 [Example 17, 2-(4-((5-cyclopropyl-3-(2,6-dichlorophenyl)isoxazol-4-yl)methoxy)bicyclo[2.2.2]octan-1-yl)-1H-benzo[d]imidazole-5-carboxylic acid]
17 | 1.1 | O=C(O)c1cccc(-c2nnc(C34CCC(OCc5c(-c6ccccc6OC(F)(F)F)noc5C5CC5)(CC3)CC4)o2)c1 [Example 18, 3-(5-(4-((5-cyclopropyl-3-(2-(trifluoromethoxy)phenyl)isoxazol-4-yl)methoxy)bicyclo[2.2.2]octan-1-yl)-1,3,4-oxadiazol-2-yl)benzoic acid]
18 | 1.7 | O=C(O)c1cccc(-c2nnc(C34CCC(OCc5c(-c6ccccc6OC(F)(F)F)noc5C5CC5)(CC3)CC4)s2)c1 [Example 19, 3-(5-(4-((5-cyclopropyl-3-(2-(trifluoromethoxy)phenyl)isoxazol-4-yl)methoxy)bicyclo[2.2.2]octan-1-yl)-1,3,4-thiadiazol-2-yl)benzoic acid]
19 | 0.51 | O=C(O)c1cccc(-c2nc(C34CCC(OCc5c(-c6ccccc6C(F)(F)F)noc5C5CC5)(CC3)CC4)no2)c1 [Example 20, 3-(3-(4-((5-cyclopropyl-3-(2-(trifluoromethyl)phenyl)isoxazol-4-yl)methoxy)bicyclo[2.2.2]octan-1-yl)-1,2,4-oxadiazol-5-yl)benzoic acid]
20 | 0.88 | O=C(O)c1ccc(-c2nc(C34CCC(OCc5c(-c6ccccc6C(F)(F)F)noc5C5CC5)(CC3)CC4)no2)cc1 [Example 21, 4-(3-(4-((5-cyclopropyl-3-(2-(trifluoromethyl)phenyl)isoxazol-4-yl)methoxy)bicyclo[2.2.2]octan-1-yl)-1,2,4-oxadiazol-5-yl)benzoic acid]
21 | 0.21 | O=C(O)c1cc(-c2nc(C34CCC(OCc5c(-c6c(Cl)cccc6Cl)noc5C5CC5)(CC3)CC4)no2)ccn1 [Example 22, 4-(3-(4-((5-cyclopropyl-3-(2,6-dichlorophenyl)isoxazol-4-yl)methoxy)bicyclo[2.2.2]octan-1-yl)-1,2,4-oxadiazol-5-yl)picolinic acid]
22 | 2.8 | O=C(O)c1cccc(-c2nc(C34CCC(OCc5c(-c6ccccc6C(F)(F)F)noc5C5CC5)(CC3)CC4)no2)n1 [Example 23, 6-(3-(4-((5-cyclopropyl-3-(2-(trifluoromethyl)phenyl)isoxazol-4-yl)methoxy)bicyclo[2.2.2]octan-1-yl)-1,2,4-oxadiazol-5-yl)picolinic acid]
23 | 0.25 | O=C(O)c1ccc2nc(C34CCC(OCc5c(-c6c(Cl)cccc6Cl)noc5C5CC5)(CC3)CC4)ncc2c1 [Example 24, 2-(4-((5-cyclopropyl-3-(2,6-dichlorophenyl)isoxazol-4-yl)methoxy)bicyclo[2.2.2]octan-1-yl)quinazoline-6-carboxylic acid]

Row | Compound | EC50 [µM]
24 | O=C(O)c1cccc(-c2noc(C34CCC(OCc5c(-c6ccccc6OC(F)(F)F)noc5C5CC5)(CC3)CC4)n2)c1 [Example 1, 3-(5-(4-((5-cyclopropyl-3-(2-(trifluoromethoxy)phenyl)isoxazol-4-yl)methoxy)bicyclo[2.2.2]octan-1-yl)-1,2,4-oxadiazol-3-yl)benzoic acid] | 0.11
25 | O=C(O)c1cccc(-c2noc(C34CCC(OCc5c(-c6ccccc6C(F)(F)F)noc5C5CC5)(CC3)CC4)n2)c1 [Example 25] | 0.3
26 | CC(C)c1onc(-c2ccccc2OC(F)(F)F)c1COC12CCC(c3nc(-c4ccc(C(=O)O)cc4)no3)(CC1)CC2 [Example 26] | 0.98
27 | O=C(O)c1ccc(-c2noc(C34CCC(OCc5c(-c6ccccc6C(F)(F)F)noc5C5CC5)(CC3)CC4)n2)cc1 [Example 29] | 0.33
28 | COc1ccc(-c2noc(C34CCC(OCc5c(-c6ccccc6C(F)(F)F)noc5C5CC5)(CC3)CC4)n2)cc1C(=O)O [Example 31] | 0.37
29 | COC(=O)c1ccc(-c2noc(C34CCC(OCc5c(-c6ccccc6C(F)(F)F)noc5C5CC5)(CC3)CC4)n2)cc1 [Example 34] | 5.1
30 | COC(=O)c1ccc(-c2noc(C34CCC(OCc5c(-c6ccccc6OC(F)(F)F)noc5C(C)C)(CC3)CC4)n2)cc1 [Example 35] | 2.4
31 | COC(=O)c1cccc(-c2noc(C34CCC(OCc5c(-c6ccccc6C(F)(F)F)noc5C5CC5)(CC3)CC4)n2)c1 [Example 36] | 3.5
32 | O=C(O)c1ccc2nc(C34CCC(OCc5c(-c6ccccc6OC(F)(F)F)noc5C5CC5)(CC3)CC4)sc2c1 [Example 38] | 0.36
33 | O=C(O)c1cccc(/C=C/C23CCC(OCc4c(-c5ccccc5OC(F)(F)F)noc4C4CC4)(CC2)CC3)c1 [Example 40] | 0.1
34 | O=C(O)c1ccc(-c2noc(C34CCC(OCc5c(-c6ccccc6OC(F)(F)F)noc5C5CC5)(CC3)CC4)n2)nc1 [Example 42] | 1.5
35 | O=C(O)c1cncc(-c2noc(C34CCC(OCc5c(-c6ccccc6OC(F)(F)F)noc5C5CC5)(CC3)CC4)n2)c1 [Example 44] | 0.87
